{"source": "patent US20210087238A1", "about": "“CELL PENETRATING PEPTIDES AND RELATED COMPOSITIONS AND METHODS” (Phylogica Limited, priority 2017, published 2021)", "key": {"[1]": {"tested_on": "CHO-K1 cells stably-expressing EGFR receptor", "assay": "Bouganin assay: FPP_SpyT conjugated to EGFRAffibody_Bouganin_SpyC toxin, matched CHO-K1 lines (±hEGFR)", "format": "cell-based", "conditions": "100 nM toxin; 48 h; CHO-K1 EGFR vs CHO-K1", "experimental": "FIG. 9 FPP compatibility with receptor binding delivery (RBD)-mediated delivery and half-life extension by PASylation. (A) a plot showing percent viability of CHO-K1 cells stably-expressing EGFR receptor or (B) CHO-K1 cells were treated with FPP_SpyT conjugated to EGFRAffybody_Bouganin SpyC (EGRFAffbd_Boug_SpyC) toxin. After 48 h incubation cell viability was assessed by resazurin reduction potential. […] Results are representative of 3 independent experiments. Error bars represent standard deviation from the mean of duplicate samples. **P<0.01, ***P<0.001 by one-way ANOVA with Dunnett's multiple comparison test. (C) T47D cells were treated with FPP_PAP_linker_SpyT with and without conjugation to PAS_SpyC recombinant protein. […] Linkers are Cathepsin B FKFL cleavage motif (BF), Cathepsin B Valine-Citrulline cleavage motif (Ba) and Furin RKKR cleavage motif (Fur). Results are representative of 2 independent experiments. Error bars represent standard deviation from the mean of duplicate samples.\nAll assays followed manufacturer's instructions."}, "[2]": {"tested_on": "CHO-K1 cells", "assay": "β-Lactamase (BLA) bioassay, CCF2-AM cleavage by flow cytometry", "format": "cell-based", "conditions": "SpyC-BLA/CPP-SpyT conjugates; comparator TAT-SpyTag conjugate", "experimental": "CHO-K1 cells (seeded at 1×10^5 cells/well in 24-well plates) were incubated with purified SpyC_BLA (SEQ ID NO:90) and SpyC_BLA_FPP1.1 (SEQ ID NO:91) proteins at […]/5% CO2 for 2 hours. Cells were washed, detached by 5 mins incubation with trypsin, washed, loaded with the β-lactamase substrate CCF2-AM and analysed by Flow Cytometry; intracellular β-lactamase activity caused an emission shift from 510 nm to 450 nm. The percentages of β-lactamase positive cells for each sample were graphed against the concentration of protein added to the cells. […]\nβ-Lactamase is a bacterial enzyme that catalyses the opening of β-lactam rings. […] To address this need, β-Lactamase was expressed as C-terminal SpyC fusion, making SpyC-BLA (SEQ ID NO:90). […]\nCCF2-AM (Thermofisher Scientific, Australia) is a Fluorescence Resonance Energy Transfer (FRET) substrate that is enzymatically cleaved by β-Lactamase. […] In the presence of β-Lactamase, the fluorescein moiety of CCF2 is enzymatically cleaved, resulting in the emission wavelength shifting to 447 nm (blue). β-Lactamase activity is quantified by measuring the ratio of blue fluorescence to green fluorescence.\nThe cell-penetrating and endosomal escape ability of FPP1.1 (SEQ ID NO:39) and sequence variant SpyC-BLA/CCP-SpyT conjugates was assessed by flow cytometry to determine cytosolic CCF2-AM cleavage by internalized β-Lactamase. […]"}}}
{"sequence": "KTQEKKKKQPPKPKKPKTQEKKKKQPPKPKR (Amino acid sequence of a Sindbis virus capsid-derived CPP (del1746)) [FPP1-del]", "values": [{"measurement": "delivery of EGFRAffbd_Boug_SpyC toxin, cell viability", "setting": "[1]", "value": "significantly improved delivery compared to RBD alone but retains RBD encoded specificity"}]}
{"sequence": "PKKPKTQEKKKKQPPK (Amino acid sequence of a Sindbis virus capsid-derived CPP (SAR1)) [FPP1-SAR1]", "values": [{"measurement": "delivery of BLA to the cytosol", "setting": "[2]", "value": "ineffective in delivering BLA"}]}
